Laboratory results: patent US20090012152A1, “Use of Tetramic Acid Derivatives for Controlling Insects from the Genus of the Plane Lice (Sternorrhyncha)” (Bayer CropScience Aktiengesellschaft, priority 2005, published 2009)

Key:
Type in all cases: in vivo
[1] = tested on: Pulvinaria aethiopicus; test: Example 10: mandarin trees treated against Pulvinaria aethiopicus; conditions: 45 days after last of two treatments, on fruits, % a.i.: mineral oil 0.251 + pyriproxifen 0.003, I-9 0.0096, I-2 0.0144
Procedure: In three replications, about 6-year-old mandarin trees of the cultivar “Naartje” are treated against Pulvinaria aethiopicus. Two applications are carried out at an interval of 32 days as irradication treatment using a knapsack operated with pressurized air. Here, the active compounds Example (I-9) (240 SC) and Example (I-2) (240 SC) are tested against a commercial tank mix of a mineral oil (835 EC) which is commercially available in South Africa and customarily used in this country and pyriproxifen (100 EC) at the stated amounts. The application rate is 8.3 l of water/tree.
Evaluation is carried out 45 days after the last treatment by rating the kill in percent on the fruits.

[2] = tested on: Lepidosaphes beckii; test: Example 18: citrus trees treated against Lepidosaphes beckii; conditions: 140 days after treatment, larvae on fruits, g a.i./ha/m crown height: pyriproxyfen 50, I-4 48
Procedure: In three replications, in plots of a size of about 20 m^2, citrus trees of the cultivar “Oro Nules” are treated against Lepidosaphes beckii. The application is carried out using a high-pressure sprayer. Here, the active compound Example (I-4) (240 SC) in a tank mix with 0.1% a.i. of rapeseed oil methyl ester (500 EW) is tested against the commercial standard pyriproxyfen (100 EC), at the stated application rates. The application rate is 2500 l of water/ha.
Evaluation is carried out 140 days after the treatment by rating the kill of the larvae on the fruits.

[3] = tested on: Planococcus spp.; test: Example 29: vines treated against Planococcus spp.; conditions: larvae on grapes, rate %/1: Dursban 0.096, I-4 0.0096
Procedure: In three replications, in plots of a size of 54 m^2, about 10-year-old vines of the cultivar “Napoleon” are treated against Planococcus spp. The application is carried out using a knapsack sprayer. Here, the active compound Example (I-4) (240 SC), in a tank mix with 0.1% a.i. of rapeseed oil methyl ester (500 EW), is tested against the commercial standard Dursban (480 EC), at the stated application rates. The application rate is 864 l of water/ha. Two treatments are carried out, at an interval of 19 days.
Evaluation is carried out 16 and 38 days after the second treatment by rating the kill of the larvae on the grapes.

[4] = tested on: Aleurothrixus floccosus; test: Example 39: orange trees treated against Aleurothrixus floccosus; conditions: on branches, % a.i.: Juvinal 0.005, I-4 0.0072
Procedure: In three replications, about 55-year-old orange trees of the cultivar “Amargo” are treated against Aleurothrixus floccosus. The application is carried out using a motor-operated knapsack sprayer. Here, the active compound Example (I-4) (240 SC), in a tank mix with 0.1% a.i. of rapeseed oil methyl ester (500 EW), is tested at the stated application rate against the standard Juvinal (100 EC) at the stated application rates, applied once. The application rate is 2630 l of water/ha.
Evaluation is carried out 36, 51, 62 and 76 days after the treatment by rating the kill on the branches.

[5] = tested on: Nasonovia ribisnigri; test: Example 42: head lettuce treated against Nasonovia ribisnigri; conditions: on plants, g a.i./ha: Pirimor 150, I-4 48, I-8 42
Procedure: In four replications, plots of a size of 5 m^2 with head lettuce are, two weeks after transplantation, treated against Nasonovia ribisnigri. The application is carried out using a knapsack sprayer operated with pressurized air. Here, the active compounds Example (I-4) (240 SC) and Example (I-8) (240 SC) are, in a tank mix with 0.2% a.i. of rapeseed oil methyl ester (500 EW), tested against the commercial standard Pirimor, at the stated application rates. The application rate is 500 l of water/ha.
Evaluation is carried out 7, 14 and 26 days after the treatment by rating the kill of the animals on the plants.

[6] = tested on: Macrosiphum euphorbiae; test: Example 46: head lettuce treated against Macrosiphum euphorbiae; conditions: nymphs on plants, g a.i./ha: endosulfan 1120, I-4 48
Procedure: In four replications, plots of a size of about 33 m^2 with head lettuce of the cultivar “PIC 714” are treated against Aulacorthum solani, Macrosiphum euphorbiae and Myzus persicae. The application is carried out using a tractor sprayer. Here, the active compound Example (I-4) (240 SC), in a tank mix with 0.2% a.i. of rapeseed oil methyl ester (500 EW), is tested against the commercial standard endosulfan (360 EC), at the stated application rates. The application rate is 187 l of water/ha. Two treatments are carried out, at an interval of 22 days.
Evaluation is carried out 8, 22, 30 and 40 days after the first treatment by rating the kill of the nymphs on the plants.

[7] = tested on: Myzus persicae; test: Example 53: plum trees treated against Myzus persicae; conditions: population on shoots, g a.i./ha/m crown height: Actara 33.5, I-4 48
Procedure: In four replications, plum trees of the cultivar “Angeleno” of a height of about 2.8 m are treated against Myzus persicae. The application is carried out using a high-pressure sprayer. Here, the active compound Example (I-4) (100 OD), in the stated amount, is tested against the commercial standard Actara (25 WG), at the stated application rate. The application rate is 500 l of water/ha/crown height in m.
Evaluation is carried out 6, 9, 12, 20 days after the treatment by rating the kill of the population on the shoots.

[8] = tested on: Myzus persicae; test: Example 54: bell pepper plants treated against Myzus persicae; conditions: on leaves, g a.i./ha: Provado 50, I-4 48
Procedure: In four replications, plots of a size of about 8.4 m^2 with 36 11-week-old bell pepper plants of the cultivar “Casea dura ikeda” are treated against Myzus persicae. The application is carried out using a knapsack sprayer operated with pressurized air. Here, the active compound Example (I-4) (240 SC), in a tank mix with 0.2% a.i. of rapeseed oil methyl ester (500 EW), is tested against the commercial standard Provado (200 SC), at the stated application rates. The application rate is 600 l of water/ha. There are three applications, in each case at an interval of 7 d.
Evaluation is carried out 1, 7, and 14 days after the last treatment by rating the kill of the animals on the leaves.

Compound: CCOC(=O)OC1=C(c2cc(C)ccc2Br)C(=O)NC12CCC(OC)CC2 (centres unmarked) [Example (I-2)]
- Kill (%) [1]: 72%

Compound: CCOC(=O)OC1=C(c2cc(C)ccc2C)C(=O)NC12CCC(OC)CC2 (centres unmarked) [Example (I-4)]
- Kill (%) 140 days [2]: 100%
- Kill (%) 16 d ([3]; 16 d after second treatment): 94.4%
- Kill (%) 38 d ([3]; 38 d after second treatment): 91.9%
- Kill (%) 36 d ([4]; 36 d after treatment): 81.1%
- Kill (%) 51 d ([4]; 51 d after treatment): 81.5%
- Kill (%) 62 d ([4]; 62 d after treatment): 92.1%
- Kill (%) 76 d ([4]; 76 d after treatment): 92.9%
- Kill (%) 7 d ([5]; 7 d after treatment): 92.3%
- Kill (%) 14 d ([5]; 14 d after treatment): 95.7%
- Kill (%) 26 d ([5]; 26 d after treatment): 95.1%
- Kill (%) 8 d ([6]; 8 d after first of two treatments): 95%
- Kill (%) 22 d ([6]; 22 d after first of two treatments): 100%
- Kill (%) 30 d ([6]; 30 d after first of two treatments): 100%
- Kill (%) 40 d ([6]; 40 d after first of two treatments): 96%
- Kill (%) 6 d ([7]; 6 d after treatment): 96.4%
- Kill (%) 9 d ([7]; 9 d after treatment): 99.7%
- Kill (%) 12 d ([7]; 12 d after treatment): 99.8%
- Kill (%) 20 d ([7]; 20 d after treatment): 99.9%
- Kill (%) 27 d ([7]; 27 d after treatment): 99.9%
- Kill (%) 1 d ([8]; 1 d after last of three treatments): 99.1%
- Kill (%) 7 d ([8]; 7 d after last of three treatments): 98.5%
- Kill (%) 14 d ([8]; 14 d after last of three treatments): 100%
